Marks after values point to notes of the source that are not given here. Where no end group is shown, it is not given here.
What was measured:
Hemangioma tumor cells = assay: MTT proliferation inhibition, hemangioma cells; type: cell-based, human; design: concentration or dose not given beside the values; conditions: 48 h
Procedure: (§1) The activity of mPEG-HM-1 to inhibit the growth of various tumor cells was examined by MTT assay. The tumor cells were cultured to a concentration of 90% or more in a 37° C., 5% CO2 incubator and collected by trypsinization. The cells were resuspended in the culture medium and counted under a microscope to adjust the cell concentration to 2×10^4 cells/mL, the cell suspension was inoculated into a 96-well plate at 100 μL/well and incubated overnight at 37° C. in a 5% CO2 incubator. mPEG-HM-1 was diluted with the culture solution to each predetermined concentration. Docetaxel is diluted to the final concentration with the culture medium. After the cells were fully attached, each dilution was added to a 96-well plate (100 μL/well). The mPEG-HM-1 dilution was added as a drug-administered group, and docetaxel was added as a positive control group, and a culture solution without any drug was used as a negative control group. Incubate for 48 h at 37° C. in a 5% CO2 incubator. 5 mg/mL of MTT was added to a 96-well plate at 20 μL per well, and incubation was continued for 4 hours. The medium was aspirated, dissolved in 150 μL of DMSO per well, and gently mixed by shaking for 10 min. The absorbance was measured at a measurement wavelength of 570 nm and a reference wavelength of 630 nm using a microplate reader, and the rate of growth inhibition (proliferation inhibition, PI) was calculated. The formula is as follows: PI (%)=1−administration group/negative group
(§2) The test was repeated 3 times independently, and the results obtained by the test were expressed as mean±SD, and the test results are shown in Table 15 to Table 18.

[1] = tested on: Breast cancer tumor cells; assay: MTT proliferation inhibition, breast cancer cells; type: cell-based, human; design: concentration or dose not given beside the values; conditions: 48 h
Procedure: as §1, §2

[2] = tested on: adjuvant arthritis (AA) SD rats; assay: Adjuvant arthritis (AA) rat model; type: in vivo; conditions: for Joint swelling / Left and right paw swelling / Clinical score: AA SD rats; for Clinical score: maximum score 16; for in vivo immune protection effect on adjuvant arthritis model (in words): AA rats, subcutaneous, once every three days, vs model group
[3] = tested on: Kidney cancer tumor cells; assay: MTT proliferation inhibition, kidney cancer cells; type: cell-based, human; design: concentration or dose not given beside the values; conditions: 48 h
Procedure: as §1, §2

[4] = tested on: Uterine cancer tumor cells; assay: MTT proliferation inhibition, uterine cancer cells; type: cell-based, human; design: concentration or dose not given beside the values; conditions: 48 h
Procedure: as §1, §2

[5] = tested on: Gastric cancer tumor cells; assay: MTT proliferation inhibition, gastric cancer cells; type: cell-based, human; design: concentration or dose not given beside the values; conditions: 48 h
Procedure: as §1, §2

[6] = tested on: Bladder Cancer tumor cells; assay: MTT proliferation inhibition, bladder cancer cells; type: cell-based, human; design: concentration or dose not given beside the values; conditions: 48 h
Procedure: as §1, §2

[7] = tested on: Cervical cancer tumor cells; assay: MTT proliferation inhibition, cervical cancer cells; type: cell-based, human; design: concentration or dose not given beside the values; conditions: 48 h
Procedure: as §1, §2

[8] = tested on: human retinal vascular endothelial cells (HRCEC); assay: MTT proliferation of human retinal vascular endothelial cells; type: cell-based; conditions: 48 h; for Inhibition rate: HRCEC proliferation; for A570 nm-A630 nm: HRCEC; for A570 nm-A630 nm / inhibition rate of HRCEC proliferation: MTT
Procedure: The activity of the angiogenesis inhibitor polypeptide to inhibit proliferation of human retinal vascular endothelial cells was examined by MTT assay. HRCEC cells were cultured in a 37° C., 5% CO2 incubator to a density of 90% or more, and collected by trypsinization. The cells were resuspended in the culture medium and counted under a microscope to adjust the cell concentration to 3.0×10^4 cells/mL. The cell suspension was inoculated into a 96-well plate at 100 μL per well and cultured overnight at 37° C. in a 5% CO2 incubator. After the cells were completely adhered, the angiogenesis inhibitor polypeptide was added as the administration group, and Avastin was used as the positive control group, and the culture media without any drug was used as a blank control group, and the culture media were diluted to each predetermined concentration. Each dilution was separately added to a 96-well plate at 100 μL per well and incubated for 48 h at 37° C. in a 5% CO2 incubator. 20 μL of 5 mg/mL MTT was added to each well of a 96-well plate and incubation was continued for 4 h. The medium was aspirated and dissolved in 100 μL of DMSO per well. […] The formula is as follows: PI (%)=1−administration group/negative group
The test was repeated 3 times independently. The results obtained by the test were expressed as mean±SD, and a statistical T test was performed. *P<0.05 was a significant difference, and **P<0.01 was a very significant difference.

various tumor cells = assay: MTT proliferation inhibition, overall statements on various tumor cells; type: cell-based, human; conditions: compared with the negative control
Procedure: as §1, §2

[9] = 40 mg/kg subcutaneous once every three days
[10] = 20 mg/kg subcutaneous once every three days
[11] = 80 mg/kg subcutaneous once every three days
[12] = 10 mg/kg subcutaneous once every three days

Row | Substance | rate of growth inhibition (Hemangioma tumor cells) | rate of growth inhibition [1] | rate of growth inhibition [3] | rate of growth inhibition [4] | rate of growth inhibition [5] | rate of growth inhibition [6] | rate of growth inhibition [7] | Inhibition rate ([8]; 60 μg/mL) | A570 nm-A630 nm ([8]; 60 μg/mL) | Inhibition rate ([8]; 80 μg/mL) | A570 nm-A630 nm ([8]; 80 μg/mL) | Inhibition rate ([8]; 100 μg/mL) | A570 nm-A630 nm ([8]; 100 μg/mL) | Inhibition rate ([8]; 40 μg/mL) | A570 nm-A630 nm ([8]; 40 μg/mL) | other results
1 | mPEG2-NHS20k-Arg-Gly-Ala-Asp-Arg-Ala-Gly-Gly-Gly-Gly-Arg-Gly-Asp ({mPEG2‑NHS 20 kDa}-RGADRAGGGGRGD) [mPEG2-NHS20k-HM-1] | 55.38 ± 16.23% | 52.68 ± 17.25% | 55.20 ± 15.43% | 65.99 ± 22.07% | 60.90 ± 20.14% | 49.79 ± 12.73% | 60.63 ± 19.39% | 44.01%* | 0.7401 ± 0.07482 | 54.18%** | 0.6056 ± 0.07003 | 64.62%* | 0.4677 ± 0.07601 |  |  | Joint swelling [2, 9]: 0.80 ± 0.21 mm; Left and right paw swelling [2, 9]: 3.77 ± 0.66 mm; Clinical score [2, 9]: 5.82 ± 1.03; inhibition of proliferation of various tumor cells (in words) (various tumor cells): had the best effect
2 | mPEG-ALD10k-Arg-Gly-Ala-Asp-Arg-Ala-Gly-Gly-Gly-Gly-Arg-Gly-Asp ({mPEG‑ALD 10 kDa}-RGADRAGGGGRGD) [mPEG-ALD10k-HM-1] | 60.25 ± 14.33% | 70.19 ± 17.07% | 75.23 ± 19.11% | 90.79 ± 22.19% | 80.01 ± 18.26% | 52.68 ± 13.12% | 83.04 ± 18.74% | 58.62%** | 0.5424 ± 0.07508 | 73.89%* | 0.3422 ± 0.07412 |  |  | 48.34%* | 0.6771 ± 0.07904 | Joint swelling [2, 10]: 0.68 ± 0.15 mm; Left and right paw swelling [2, 10]: 3.72 ± 0.54 mm; Clinical score [2, 10]: 5.39 ± 1.10; in vivo immune protection effect on adjuvant arthritis model (in words) [2]: has the most significant effect; inhibition rate of HRCEC proliferation ([8]; 80 μg/mL): 73.89%; inhibition of proliferation of various tumor cells (in words) (various tumor cells): had the best effect
3 | mPEG-SC10k-Arg-Gly-Ala-Asp-Arg-Ala-Gly-Gly-Gly-Gly-Arg-Gly-Asp ({mPEG‑SC 10 kDa}-RGADRAGGGGRGD) [mPEG-SC10k-HM-1] | 52.88 ± 13.66% | 50.16 ± 13.27% | 60.07 ± 14.24% | 65.29 ± 19.06% | 56.22 ± 16.19% | 42.76 ± 10.06% | 57.17 ± 18.40% | 55.39%** | 0.5847 ± 0.07356 | 68.84%* | 0.4084 ± 0.07298 |  |  | 46.44%* | 0.7020 ± 0.07964 | Joint swelling [2, 10]: 0.70 ± 0.18 mm; Left and right paw swelling [2, 10]: 3.81 ± 0.71 mm; Clinical score [2, 10]: 5.52 ± 1.07; in vivo immune protection effect on adjuvant arthritis model (in words) [2]: has the most significant effect; inhibition rate of HRCEC proliferation ([8]; 80 μg/mL): 68.84%
4 | mPEG-SC40k-Arg-Gly-Ala-Asp-Arg-Ala-Gly-Gly-Gly-Gly-Arg-Gly-Asp ({mPEG‑SC 40 kDa}-RGADRAGGGGRGD) [mPEG-SC40k-HM-1] | 53.36 ± 15.09% | 50.12 ± 18.09% | 62.23 ± 16.51% | 70.27 ± 21.37% | 55.13 ± 10.32% | 48.69 ± 11.61% | 61.52 ± 15.11% |  |  | 42.27%* | 0.7567 ± 0.07109 | 53.16%** | 0.6139 ± 0.0712 |  |  | Joint swelling [2, 11]: 0.71 ± 0.11 mm; Left and right paw swelling [2, 11]: 3.83 ± 0.62 mm; Clinical score [2, 11]: 5.88 ± 1.08; Inhibition rate ([8]; 120 μg/mL): 63.68%*; A570 nm-A630 nm ([8]; 120 μg/mL): 0.4760 ± 0.07009
5 | mPEG-bALD5k-Arg-Gly-Ala-Asp-Arg-Ala-Gly-Gly-Gly-Gly-Arg-Gly-Asp ({mPEG‑bALD 5 kDa}-RGADRAGGGGRGD) [mPEG-bALD5k-HM-1] | 40.29 ± 12.16% | 50.02 ± 10.47% | 57.63 ± 12.09% | 65.46 ± 18.52% | 56.87 ± 14.41% | 36.03 ± 10.12% | 64.52 ± 16.88% | 62.77%* | 04958 ± 0.07902 |  |  |  |  | 50.48%** | 0.6594 ± 0.08003 | Joint swelling [2, 12]: 0.73 ± 0.18 mm; Left and right paw swelling [2, 12]: 3.94 ± 0.65 mm; Clinical score [2, 12]: 5.92 ± 1.11; Inhibition rate ([8]; 20 μg/mL): 41.82%*; A570 nm-A630 nm ([8]; 20 μg/mL): 0.7747 ± 0.08752
6 | mPEG-bALD20k-Arg-Gly-Ala-Asp-Arg-Ala-Gly-Gly-Gly-Gly-Arg-Gly-Asp ({mPEG‑bALD 20 kDa}-RGADRAGGGGRGD) [mPEG-bALD20k-HM-1] | 50.31 ± 14.00% | 60.97 ± 16.29% | 66.81 ± 19.48% | 75.97 ± 22.67% | 70.21 ± 18.32% | 45.24 ± 10.69% | 78.57 ± 20.11% | 47.53%* | 0.6987 ± 0.07838 | 57.32%** | 0.5683 ± 0.07055 | 69.12%* | 0.4112 ± 0.07405 |  |  | Joint swelling [2, 9]: 0.77 ± 0.23 mm; Left and right paw swelling [2, 9]: 3.78 ± 0.63 mm; Clinical score [2, 9]: 5.68 ± 1.10
7 | mPEG-bALD40k-Arg-Gly-Ala-Asp-Arg-Ala-Gly-Gly-Gly-Gly-Arg-Gly-Asp ({mPEG‑bALD 40 kDa}-RGADRAGGGGRGD) [mPEG-bALD40k-HM-1] | 48.69 ± 12.72% | 62.45 ± 19.04% | 60.06 ± 18.88% | 70.51 ± 20.22% | 68.65 ± 16.93% | 43.82 ± 10.31% | 70.34 ± 19.04% |  |  | 44.81%* | 0.7349 ± 0.07082 | 55.03%** | 0.5988 ± 0.07291 |  |  | Joint swelling [2, 11]: 0.74 ± 0.18 mm; Left and right paw swelling [2, 11]: 3.81 ± 0.62 mm; Clinical score [2, 11]: 5.78 ± 1.05; Inhibition rate ([8]; 120 μg/mL): 63.12%*; A570 nm-A630 nm ([8]; 120 μg/mL): 0.4911 ± 0.07534

Reference: patent US10869931B2, “Polyethylene glycol-modified angiogenesis inhibitor HM-1 and application thereof” (NANJING ANJI BIOLOGICAL TECHNOLOGY CO.,LTD, priority 2016, dated 2020)
